Reference: US12497405B2, “Bicyclic heterocycle compounds methods of use thereof for the treatment of herpes viruses” (Merck Sharp & Dohme LLC, priority 2019, dated 2025)

Tests used:
[1] = biological target: Human cytomegalovirus DNA polymerase (Human cytomegalovirus (strain AD169) (HHV-5) (Human herpesvirus 5), UniProt P08546); assay: CMV polymerase assay (AlphaLISA); format: biochemical; settings: HCMV polymerase 0.2 nM, 30 min pre-incubation, 60 minute at 37° C.
Method in brief: (§1)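 Baculovirus/SF21-expressed polymerase (HCMV 0.2 nM, VZV 0.4 nM final) was preincubated 30 min at room temperature with compound in HEPES pH 7.5/Mg buffer. Reactions with 1.6 nM DIG-primer/template, low nM dNTPs and biotin-dUTP ran 60 min at 37 °C. AlphaLISA readout, normalized to controls, 4-parameter IC50.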

[2] = test system: CMV; assay: Viral qPCR assay, CMV; format: cell-based; settings: Human betaherpesvirus 5, 72 h, infected cells, viral genome copies by qPCR normalized to PPIA, read-out: CMV Cell EC50
Method in brief: (§2)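 EC50 from 4-parameter fit of viral genome copies normalized to cellular PPIA, quantified by TaqMan qPCR with plasmid standard curves. Cells (MRC5, Vero or MeWo) infected in suspension, exposed ~72 h at 37 °C to 10-point 3-fold dilutions; controls uninfected and DMSO-infected cells.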

[3] = test system: HSV1; assay: Viral qPCR assay, HSV1; format: cell-based; settings: Human alphaherpesvirus 1, 72 h, infected cells, viral genome copies by qPCR normalized to PPIA, read-out: HSV1 Cell EC50
Method in brief: as §2

[4] = biological target: varicella zoster virus DNA polymerase (Varicella-zoster virus (strain Dumas) (HHV-3) (Human herpesvirus 3), UniProt P09252); assay: VZV polymerase assay (AlphaLISA); format: biochemical; settings: VZV polymerase 0.4 nM, 30 min pre-incubation, 60 minute at 37° C.
Method in brief: as §1

[5] = test system: HSV2; assay: Viral qPCR assay, HSV2; format: cell-based; settings: Human alphaherpesvirus 2, 72 h, infected cells, viral genome copies by qPCR normalized to PPIA, read-out: HSV2 Cell EC50
Method in brief: as §2

## Cc1nc2cc(-c3cnco3)c(O[C@H]3CCN4C(=O)OC[C@@H]4C3)cc2c(=O)n1Cc1ccc(C#N)cc1 [Example 60]
[1]
  IC50: 0.82 nM
[2]
  EC50: 53 nM
[3]
  EC50: 84 nM
[4]
  IC50: 0.44 nM
[5]
  EC50: 40 nM

## Cc1nc2cc(-c3cnn(C(F)F)c3)c(O[C@H]3CCN4C(=O)OC[C@@H]4C3)cc2c(=O)n1Cc1ccc(C#N)cc1F [Example 64]
[1]
  IC50: 2.5 nM
[2]
  EC50: 64 nM
[3]
  EC50: 71 nM
[4]
  IC50: 8.9 nM
[5]
  EC50: 51 nM

## CCc1nc2cc(-c3cnco3)c(O[C@H]3CCN4C(=O)OC[C@@H]4C3)cc2c(=O)n1Cc1ccc(C#N)cc1 [Example 65]
[1]
  IC50: 1.2 nM
[2]
  EC50: 28 nM
[3]
  EC50: 46 nM
[4]
  IC50: 0.68 nM
[5]
  EC50: 18 nM

## Cc1nc2cc(-c3cnn(C(F)F)c3)c(O[C@H]3CCN4C(=O)OC[C@@H]4C3)cc2c(=O)n1Cc1ccc(C#N)c(F)c1 [Example 66]
[1]
  IC50: 2.2 nM
[2]
  EC50: 50 nM
[3]
  EC50: 43 nM
[4]
  IC50: 4.8 nM
[5]
  EC50: 34 nM

## Cc1nc2ncc(O[C@H]3CCN4C(=O)OC[C@@H]4C3)cc2c(=O)n1Cc1ccc(Cl)cc1 [Example 69]
[1]
  IC50: 35 nM
[2]
  EC50: 307 nM
[3]
  EC50: 870 nM
[4]
  IC50: 29 nM
[5]
  EC50: 1300 nM

## Cc1nc2cc(-c3cnn(C4CCN(C)CC4)c3)c(O[C@H]3CCN4C(=O)OC[C@@H]4C3)cc2c(=O)n1Cc1ccc(C#N)cc1 [Example 71]
[1]
  IC50: 3.7 nM
[2]
  EC50: 197 nM
[3]
  EC50: 234 nM
[4]
  IC50: 13 nM
[5]
  EC50: 171 nM

## Cc1nc2cc(C3CC(O)C3)c(O[C@H]3CCN4C(=O)OC[C@@H]4C3)cc2c(=O)n1Cc1ccc(C#N)cc1 (some centres unmarked) [Example 72]
[1]
  IC50: 7.5 nM
[2]
  EC50: 195 nM
[3]
  EC50: 181 nM
[4]
  IC50: 4.7 nM
[5]
  EC50: 404 nM

## Cc1nc2cc(-c3cn4c(n3)CNCC4)c(O[C@H]3CCN4C(=O)OC[C@@H]4C3)cc2c(=O)n1Cc1ccc(C#N)cc1 [Example 73]
[1]
  IC50: 1 nM
[2]
  EC50: 4180 nM
[3]
  EC50: 3880 nM
[4]
  IC50: 5.2 nM
[5]
  EC50: 3020 nM

## Cc1nc2cc(C3CC(C)(O)C3)c(O[C@H]3CCN4C(=O)OC[C@@H]4C3)cc2c(=O)n1Cc1ccc(C#N)cc1 (some centres unmarked) [Example 74]
[1]
  IC50: 6.4 nM
[2]
  EC50: 55 nM
[3]
  EC50: 447 nM
[4]
  IC50: 6.4 nM
[5]
  EC50: 432 nM

## COc1ncc(-c2cc3nc(C)n(Cc4ccc(C#N)cc4)c(=O)c3cc2O[C@H]2CCN3C(=O)OC[C@@H]3C2)cn1 [Example 75]
[1]
  IC50: 29 nM
[2]
  EC50: 164 nM
[3]
  EC50: 381 nM
[4]
  IC50: 23 nM
[5]
  EC50: 413 nM

## Cc1nc2cc(-c3cc(C(F)(F)F)[nH]n3)c(O[C@H]3CCN4C(=O)OC[C@@H]4C3)cc2c(=O)n1Cc1ccc(C#N)cc1 [Example 76]
[1]
  IC50: 11 nM
[2]
  EC50: 261 nM
[3]
  EC50: 412 nM
[4]
  IC50: 11 nM
[5]
  EC50: 309 nM

## CCc1nc2cc(-c3cnc(OC)nc3)c(O[C@H]3CCN4C(=O)OC[C@@H]4C3)cc2c(=O)n1Cc1ccc(Cl)cc1 [Example 78]
[1]
  IC50: 15 nM
[2]
  EC50: 178 nM
[3]
  EC50: 405 nM
[4]
  IC50: 20 nM
[5]
  EC50: 224 nM

## Cc1nc2cc(-c3cn4c(n3)CN(C)CC4)c(O[C@H]3CCN4C(=O)OC[C@@H]4C3)cc2c(=O)n1Cc1ccc(Cl)cc1 [Example 79]
[1]
  IC50: 4.9 nM
[2]
  EC50: 147 nM
[3]
  EC50: 111 nM
[4]
  IC50: 5.5 nM
[5]
  EC50: 123 nM

## Cc1nc2cc(-c3cn(C(F)F)cn3)c(O[C@H]3CCN4C(=O)OC[C@@H]4C3)cc2c(=O)n1Cc1ccc(C#N)cc1 [Example 80]
[1]
  IC50: 7.6 nM
[2]
  EC50: 124 nM
[3]
  EC50: 157 nM
[4]
  IC50: 5.6 nM
[5]
  EC50: 227 nM

## Cc1nc2cc(-c3nc4n(n3)CCN(C)C4)c(O[C@H]3CCN4C(=O)OC[C@@H]4C3)cc2c(=O)n1Cc1ccc(Cl)cc1 [Example 81]
[1]
  IC50: 15 nM
[2]
  EC50: 265 nM
[3]
  EC50: 364 nM
[4]
  IC50: 27 nM
[5]
  EC50: 307 nM

## Cc1nc2cc(-c3cn(C(F)F)cn3)c(O[C@H]3CCN4C(=O)OC[C@@H]4C3)cc2c(=O)n1Cc1ccc(Cl)cc1 [Example 82]
[1]
  IC50: 5.5 nM
[2]
  EC50: 52 nM
[3]
  EC50: 63 nM
[4]
  IC50: 7.1 nM
[5]
  EC50: 45 nM

## Cc1nc2cc(-c3cc4n(n3)CCNC4)c(O[C@H]3CCN4C(=O)OC[C@@H]4C3)cc2c(=O)n1Cc1ccc(Cl)cc1 [Example 84]
[1]
  IC50: 0.44 nM
[2]
  EC50: 177 nM
[3]
  EC50: 113 nM
[4]
  IC50: 0.44 nM
[5]
  EC50: 102 nM

## Cc1nc2cc(-c3cc4n(n3)CCN(C)C4)c(O[C@H]3CCN4C(=O)OC[C@@H]4C3)cc2c(=O)n1Cc1ccc(Cl)cc1 [Example 86]
[1]
  IC50: 0.44 nM
[2]
  EC50: 68 nM
[3]
  EC50: 58 nM
[4]
  IC50: 0.44 nM
[5]
  EC50: 41 nM

## Cc1nc2cc(-c3cn4c(n3)CN(C)CC4)c(O[C@H]3CCN4C(=O)OC[C@@H]4C3)cc2c(=O)n1Cc1ccc(C#N)cc1 [Example 87]
[1]
  IC50: 0.44 nM
[2]
  EC50: 198 nM
[3]
  EC50: 313 nM
[4]
  IC50: 0.8 nM
[5]
  EC50: 275 nM

## COc1cnc(-c2cc3nc(C)n(Cc4ccc(Cl)cc4)c(=O)c3cc2O[C@H]2CCN3C(=O)OC[C@@H]3C2)nc1 [Example 88]
[1]
  IC50: 28 nM
[2]
  EC50: 718 nM
[3]
  EC50: 543 nM
[4]
  IC50: 25 nM
[5]
  EC50: 225 nM

## Cc1ncc(-c2cc3nc(C)n(Cc4ccc(Cl)cc4)c(=O)c3cc2O[C@H]2CCN3C(=O)OC[C@@H]3C2)cn1 [Example 90]
[1]
  IC50: 18 nM
[2]
  EC50: 241 nM
[3]
  EC50: 214 nM
[4]
  IC50: 16 nM
[5]
  EC50: 115 nM

## Cc1nc2cc(-c3cnc(C4CC4)nc3)c(O[C@H]3CCN4C(=O)OC[C@@H]4C3)cc2c(=O)n1Cc1ccc(Cl)cc1 [Example 95]
[1]
  IC50: 18 nM
[2]
  EC50: 366 nM
[3]
  EC50: 301 nM
[4]
  IC50: 19 nM
[5]
  EC50: 182 nM

## Cc1nc2cc(-c3cnc(N4CCOCC4)nc3)c(O[C@H]3CCN4C(=O)OC[C@@H]4C3)cc2c(=O)n1Cc1ccc(Cl)cc1 [Example 97]
[1]
  IC50: 14 nM
[2]
  EC50: 198 nM
[3]
  EC50: 163 nM
[4]
  IC50: 15 nM
[5]
  EC50: 96 nM

## CCOc1ncc(-c2cc3nc(C)n(Cc4ccc(Cl)cc4)c(=O)c3cc2O[C@H]2CCN3C(=O)OC[C@@H]3C2)cn1 [Example 98]
[1]
  IC50: 16 nM
[2]
  EC50: 284 nM
[3]
  EC50: 256 nM
[4]
  IC50: 15 nM
[5]
  EC50: 185 nM

## Cc1nc2cc(-c3cc4n(n3)CCN(CC(F)(F)F)C4)c(O[C@H]3CCN4C(=O)OC[C@@H]4C3)cc2c(=O)n1Cc1ccc(Cl)cc1 [Example 147]
[1]
  IC50: 7 nM
[2]
  EC50: 229 nM
[3]
  EC50: 274 nM
[4]
  IC50: 12 nM
[5]
  EC50: 96 nM
